Measurements: paper PMC8982737, “Discovery of S-217622, a Noncovalent Oral SARS-CoV-2 3CL Protease Inhibitor Clinical Candidate for Treating COVID-19” (Journal of Medicinal Chemistry, 2022)
Where “and” joins values, the source holds several entries; their conditions need not be identical. Equal values may be shown once.

What was measured:
SARS-CoV = assay: microbe, parasite or virus in culture; format: cell-based; conditions: Severe acute respiratory syndrome coronavirus, VeroE6/TMPRSS2, read-out: EC50 against SARS-CoV
caspase-2 = target: T1, caspase-2 (Homo sapiens, UniProt P42575)
T1 sequence (P42575 1-452): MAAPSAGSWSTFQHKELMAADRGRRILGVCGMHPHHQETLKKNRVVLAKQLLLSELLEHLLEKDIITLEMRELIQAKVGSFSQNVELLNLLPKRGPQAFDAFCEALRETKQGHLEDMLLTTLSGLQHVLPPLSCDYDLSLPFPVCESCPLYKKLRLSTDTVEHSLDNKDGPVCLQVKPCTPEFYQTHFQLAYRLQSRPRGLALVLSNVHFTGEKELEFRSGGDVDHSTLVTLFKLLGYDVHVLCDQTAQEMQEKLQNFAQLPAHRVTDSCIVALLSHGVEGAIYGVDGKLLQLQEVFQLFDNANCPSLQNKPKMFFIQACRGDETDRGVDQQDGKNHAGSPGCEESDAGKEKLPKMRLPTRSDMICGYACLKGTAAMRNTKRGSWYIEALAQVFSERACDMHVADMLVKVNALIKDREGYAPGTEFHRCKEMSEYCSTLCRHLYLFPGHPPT

in vitro = conditions: African green monkey
[1] = tested on: SARS-CoV-2 Gamma strain (hCoV-19/Japan/TY7-501/2021); format: in vivo, BALB/cAJcl mice
Dog PK study = conditions: intravenous 0.1 mg/0.2 mL/kg, n = 2, nonfasted
SARS-CoV-2 [2] = assay: Cellular antiviral activity in the presence of mouse serum; format: cell-based; conditions: Severe acute respiratory syndrome coronavirus 2; extrapolated to 100% mouse serum; read-out: protein-adjusted-EC50 (PA-EC50)
HCoV-229E = assay: microbe, parasite or virus in culture; format: cell-based; conditions: Human coronavirus 229E, MRC5; CPE, MRC-5 cells, mean; read-out: EC50 against HCoV-229E
chymotrypsin = assay: Human protease enzyme assay: chymotrypsin; format: biochemical
[3] = mouse, in vivo
cathepsin L = cathepsin L (Homo sapiens, UniProt P07711); assay: Human protease enzyme assay: cathepsin L; format: biochemical
cathepsin L, sequence (P07711 114-333): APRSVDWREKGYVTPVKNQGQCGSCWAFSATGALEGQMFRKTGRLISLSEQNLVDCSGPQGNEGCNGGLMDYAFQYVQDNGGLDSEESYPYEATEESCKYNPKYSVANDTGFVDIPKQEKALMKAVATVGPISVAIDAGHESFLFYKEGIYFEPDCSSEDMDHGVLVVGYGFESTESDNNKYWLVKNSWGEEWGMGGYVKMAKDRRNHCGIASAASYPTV

HIV-1 protease = HIV-1 protease (Human immunodeficiency virus type 1 group M subtype B, UniProt P04585); assay: Enzymatic inhibitory activity against HIV-1 protease; format: biochemical
in vivo [4] = conditions: female, cynomolgus monkey
cathepsin D [5] = target: T2, cathepsin D (Homo sapiens, UniProt P07339); conditions: at 100 μM
T2 sequence (P07339 65-412): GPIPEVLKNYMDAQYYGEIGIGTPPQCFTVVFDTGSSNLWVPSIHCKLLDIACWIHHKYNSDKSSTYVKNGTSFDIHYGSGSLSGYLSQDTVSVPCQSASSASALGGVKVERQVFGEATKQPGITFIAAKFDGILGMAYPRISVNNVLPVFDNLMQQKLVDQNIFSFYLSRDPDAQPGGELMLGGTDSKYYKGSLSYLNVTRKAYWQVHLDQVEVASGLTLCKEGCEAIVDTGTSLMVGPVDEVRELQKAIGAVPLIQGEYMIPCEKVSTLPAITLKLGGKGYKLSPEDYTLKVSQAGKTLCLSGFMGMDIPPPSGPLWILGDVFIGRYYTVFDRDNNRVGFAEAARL

cathepsin G = target: T3, cathepsin G (Homo sapiens, UniProt P08311)
T3 sequence (P08311 21-255): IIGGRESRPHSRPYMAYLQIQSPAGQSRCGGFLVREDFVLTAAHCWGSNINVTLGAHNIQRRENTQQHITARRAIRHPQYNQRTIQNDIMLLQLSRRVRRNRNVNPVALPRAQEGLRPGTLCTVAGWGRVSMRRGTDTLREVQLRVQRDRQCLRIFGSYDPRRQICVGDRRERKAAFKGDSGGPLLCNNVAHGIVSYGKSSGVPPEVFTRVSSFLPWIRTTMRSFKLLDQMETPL

thrombin = thrombin (Homo sapiens, UniProt P00734); conditions: at 100 μM
MERS-CoV = assay: microbe, parasite or virus in culture; format: cell-based; conditions: Middle East respiratory syndrome-related coronavirus, VeroE6/TMPRSS2, read-out: EC50 against MERS-CoV
cathepsin D [6] = target: T2, cathepsin D; assay: biochemical; conditions: read-out: Inhibitory activity
in vivo [7] = conditions: male, beagle, dog
HCoV-OC43 = assay: microbe, parasite or virus in culture; format: cell-based; conditions: Betacoronavirus 1, OC43, MRC5; RT-qPCR, MRC-5 cells, mean; read-out: EC90 against HCoV-OC43
SARS-CoV-2 [8] = assay: microbe, parasite or virus in culture; format: cell-based
Rat PK study = conditions: oral 1 μmol/5 mL/kg, n = 2, nonfasted, listed as S-217622
[9] = male, Sprague-Dawley, rat, in vivo, iv
[10] = target: T4, human ether-a-go-go-related gene channel (Homo sapiens, UniProt Q12809); assay: Human ether-a-go-go-related gene inhibition assay (patch clamp, CHO cells); format: cell-based; conditions: in vitro
T4 construct: expressed in transfected cells; host or cells: Chinese hamster ovary (CHO) cells
T4 sequence (Q12809 whole entry): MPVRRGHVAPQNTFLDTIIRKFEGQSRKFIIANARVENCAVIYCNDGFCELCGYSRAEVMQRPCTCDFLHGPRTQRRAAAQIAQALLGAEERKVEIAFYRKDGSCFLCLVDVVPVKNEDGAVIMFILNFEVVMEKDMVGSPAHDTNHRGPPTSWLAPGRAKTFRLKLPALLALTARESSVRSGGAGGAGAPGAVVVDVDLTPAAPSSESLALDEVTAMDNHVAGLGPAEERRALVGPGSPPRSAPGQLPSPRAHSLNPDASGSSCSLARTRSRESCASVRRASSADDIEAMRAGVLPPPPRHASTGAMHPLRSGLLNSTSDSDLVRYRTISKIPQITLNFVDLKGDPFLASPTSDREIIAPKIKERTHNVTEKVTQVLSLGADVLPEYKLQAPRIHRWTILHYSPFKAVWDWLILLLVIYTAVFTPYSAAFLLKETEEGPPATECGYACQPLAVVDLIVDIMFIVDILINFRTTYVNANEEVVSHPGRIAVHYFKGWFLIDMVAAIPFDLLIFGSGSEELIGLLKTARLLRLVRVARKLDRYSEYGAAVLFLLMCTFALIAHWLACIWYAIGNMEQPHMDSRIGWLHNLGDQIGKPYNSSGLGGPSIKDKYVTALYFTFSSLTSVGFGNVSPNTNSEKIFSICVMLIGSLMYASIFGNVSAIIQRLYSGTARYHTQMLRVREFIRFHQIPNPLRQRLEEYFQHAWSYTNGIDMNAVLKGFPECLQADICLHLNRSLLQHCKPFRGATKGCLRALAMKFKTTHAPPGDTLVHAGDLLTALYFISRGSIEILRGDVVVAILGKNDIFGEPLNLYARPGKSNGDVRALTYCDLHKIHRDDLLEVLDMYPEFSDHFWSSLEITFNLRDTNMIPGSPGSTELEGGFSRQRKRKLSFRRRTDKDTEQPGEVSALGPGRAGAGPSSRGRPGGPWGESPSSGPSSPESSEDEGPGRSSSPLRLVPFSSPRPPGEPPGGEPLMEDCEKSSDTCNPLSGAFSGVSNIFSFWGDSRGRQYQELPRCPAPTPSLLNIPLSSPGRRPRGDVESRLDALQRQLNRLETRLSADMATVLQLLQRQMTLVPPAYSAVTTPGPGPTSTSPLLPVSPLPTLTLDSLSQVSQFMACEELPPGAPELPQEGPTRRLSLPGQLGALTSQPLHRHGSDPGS

Monkey PK study = conditions: intravenous 0.1 mg/0.2 mL/kg, n = 2, nonfasted
VeroE6/TMPRSS2 cells = conditions: African green monkey

Cn1cnc(Cn2c(=O)[nH]/c(=N\c3cc4cn(C)nc4cc3Cl)n(Cc3cc(F)c(F)cc3F)c2=O)n1 [Compound 3, (6E)-6-[(6-Chloro-2-methyl-2H-indazol-5-yl)imino]-3-[(1-methyl-1H-1,2,4-triazol-3-yl)methyl]-1-(2,4,5-trifluorobenzyl)-1,3,5-triazinane-2,4-dione]
EC50 (SARS-CoV): 210 nM | IC50 (caspase-2; caspase 2): > 100000 nM | Inhibitory activity (caspase-2; caspase 2, at 100 μM): no inhibitory activity | clastogenicity (TK6 cells): no safety concerns | CC50 (in vitro): > 100000 nM | lung viral titers ([1]; […], near lower limit of quantification): ~1.80 | effect on intrapulmonary (lung) viral titers ([1]; mouse, in vivo): reduced the intrapulmonary viral titers dose-dependently | t1/2 (Dog PK study; listed as S-217622): ~30 h | half-life (Dog PK study; male, beagle, in vivo, iv, 0.1 mg/kg, t1/2, dog): 29.5 h | EC50 (SARS-CoV-2 [2]): 3.93 µM and 2.09 µg/mL | EC50 (HCoV-229E): 5500 nM | IC50 (chymotrypsin): > 100000 nM | simulated plasma concentration over time ([3]; BALB/cAJcl, 16 mg/kg): above the protein-adjusted-EC50 | plasma concentration [3]: increased dose-dependently | IC50 (cathepsin L): > 100000 nM | Inhibitory activity (cathepsin L; at 100 μM): no inhibitory activity | inhibition at 100 µM (cathepsin L; at 100 μM, read-out: Inhibitory activity): < 50% | IC50 (HIV-1 protease): > 100000 nM | inhibition at 100 µM (HIV-1 protease; at 100 μM): < 50% | clearance (in vivo [4]; iv, 0.1 mg/kg): 0.29 mL/min/kg | bioavailability (in vivo [4]; po): 106% | Inhibitory activity (cathepsin D [5]): no inhibitory activity | IC50 (cathepsin G): > 100000 nM | Inhibitory activity (thrombin): no inhibitory activity | EC50 (MERS-CoV): 1400 nM | inhibition at 100 µM (cathepsin D [6]): < 50% | clearance (in vivo [7]; iv, 0.1 mg/kg): 0.17 mL/min/kg | bioavailability (in vivo [7]; po): 64.7% | EC90 (HCoV-OC43): 74 nM | phototoxicity (BALB/3T3 cells): no safety concerns | EC50 (SARS-CoV-2 [8]; Severe acute respiratory syndrome coronavirus 2, VeroE6/TMPRSS2, strain hCoV-19/Japan/QHN001/2020 (Alpha, B.1.1.7), mean, read-out: EC50 on cytopathic effects): 310 nM | EC50 (SARS-CoV-2 [8]; Severe acute respiratory syndrome coronavirus 2, VeroE6/TMPRSS2, strain hCoV-19/Japan/QHN002/2020 (Alpha, B.1.1.7), mean, read-out: EC50 on cytopathic effects): 460 nM | EC50 (SARS-CoV-2 [8]; Severe acute respiratory syndrome coronavirus 2, VeroE6/TMPRSS2, strain hCoV-19/Japan/QK002/2020 (Alpha, B.1.1.7), mean, read-out: EC50 on cytopathic effects): 330 nM | EC50 (SARS-CoV-2 [8]; Severe acute respiratory syndrome coronavirus 2, VeroE6/TMPRSS2, strain hCoV-19/Japan/TY7-501/2021 (Gamma, P.1), mean, read-out: EC50 on cytopathic effects): 500 nM | EC50 (SARS-CoV-2 [8]; Severe acute respiratory syndrome coronavirus 2, VeroE6/TMPRSS2, strain hCoV-19/Japan/TY7-503/2021 (Gamma, P.1), mean, read-out: EC50 on cytopathic effects): 430 nM | EC50 (SARS-CoV-2 [8]; Severe acute respiratory syndrome coronavirus 2, VeroE6/TMPRSS2, strain hCoV-19/Japan/TY8-612/2021 (Beta, B.1.351), mean, read-out: EC50 on cytopathic effects): 400 nM | EC50 (SARS-CoV-2 [8]; Severe acute respiratory syndrome coronavirus 2, VeroE6/TMPRSS2, strain hCoV-19/Japan/TY11-927-P1/2021 (Delta, B.1.617.2), mean, read-out: EC50 on cytopathic effects): 410 nM | EC50 (SARS-CoV-2 [8]; Severe acute respiratory syndrome coronavirus 2, VeroE6/TMPRSS2, strain hCoV-19/Japan/TY38-873/2021 (Omicron, B.1.1.529), mean, read-out: EC50 on cytopathic effects): 290 nM | EC50 (SARS-CoV-2 [8]; Severe acute respiratory syndrome coronavirus 2, CPE inhibition assay, VeroE6/TMPRSS2 cells, read-out: VeroE6/TMPRSS2 EC50 (antiviral activity)): 370 nM | Oral F (oral bioavailability) (Rat PK study): 97% | CL (total clearance) [9]: 1.70 mL/min/kg | ether-a-go-go-related gene inhibition [10]: no safety concerns | half-life (Monkey PK study; female, cynomolgus monkey, in vivo, iv, 0.1 mg/kg, t1/2, monkey): 10 h | t1/2 (Monkey PK study; monkey, listed as S-217622): approximately 10 h | CC50 (VeroE6/TMPRSS2 cells): > 100000 nM
